Laboratory results taken from PMC5820653, “Detection of a Peptide Biomarker by Engineered Yeast Receptors” (ACS Synthetic Biology, 2018).
Ends that are not written are not given here.

Key:
[1] = target: T1, Ste2p mutant receptor Cys1H4 (M54I) (Saccharomyces cerevisiae, UniProt D6VTK4, M54I); assay: cell-based; type: cell-based
T1 construct: expressed in transfected cells; host or cells: S. cerevisiae yJB013 (ste2-deleted reporter strain), p416GPD plasmid
Experimental: (§1) Yeast were grown overnight at 30 °C and 225 rpm in 250 mL Erlenmeyer flasks and then diluted to an OD600 = 0.1 in the appropriate medium, typically CSM-Ura or SDCAA-Ura, or commercially sourced pooled human urine. Immediately after dilution, the peptide ligand was added. The culture was incubated for 2.5 h at 30 °C with 225 rpm shaking. Cells were centrifuged at 2000g for 5 min and supernatant was removed. Cells were resuspended in 1x PBS in preparation for flow cytometry.
(§2) Analytical flow cytometry was performed with the BD LSR II (BD Biosciences, San Jose, USA); yEGFP was read on the Alexa-Flour 488 channel, and mKate was read on the PE-Texas Red channel. Receptor output was measured by dividing the mean GFP fluorescence by the mean RFP fluorescence for a population. EC50 values were calculated by fitting the receptor output to a four-parameter logistic curve, and determining which ligand concentration produced an output equivalent to half of the receptor’s maximum output.
(§3) The dose response curves were modeled to fit the following four-parameter logistic curve: [drawing 2] where a is the minimum value, b is the maximum value, c is the EC50, and d is the hill coefficient. The fluorescent receptor output, y, to a given concentration x of ligand, was determined by the following equation: [drawing 3] where GFP is downstream of the receptor pathway and mKate is constitutively expressed (see Strain and Plasmid Construction, Methods Section).
(§4) Data were fit to the Michaelis–Menten equation: [drawing 4] where the fluorescent receptor output, y, to a given concentration x of ligand, was determined by the following equation: [drawing 5] where GFP is downstream of the receptor pathway and mKate is constitutively expressed (see Strain and Plasmid Construction, Methods Section).

[2] = target: T2, Ste2p mutant receptor Cys1H5 (M54I, C59S) (Saccharomyces cerevisiae, UniProt D6VTK4, C59S/M54I); assay: cell-based; type: cell-based
T2 construct: expressed in transfected cells; host or cells: S. cerevisiae yJB013 (ste2-deleted reporter strain), p416GPD plasmid
Experimental: as §1, §2, §3, §4

[3] = target: T3, Ste2p mutant receptor Cys4L3 (Saccharomyces cerevisiae, UniProt D6VTK4, K225T/M218T/M54I/N158F/R74K/T167R/Y26F); assay: cell-based
T3 construct: expressed in transfected cells; host or cells: S. cerevisiae yJB013 (ste2-deleted reporter strain), p416GPD plasmid
Experimental: as §1, §2, §3, §4

[4] = target: T4, Ste2p mutant receptor Cys2K2 (Saccharomyces cerevisiae, UniProt D6VTK4, M218K/M54I/Q272Y); assay: cell-based
T4 construct: expressed in transfected cells; host or cells: S. cerevisiae yJB013 (ste2-deleted reporter strain), p416GPD plasmid
Experimental: as §1, §2, §3, §4

[5] = target: T5, Ste2p mutant receptor Cys2K3 (Saccharomyces cerevisiae, UniProt D6VTK4, K225T/M218T/M54I/N158Y/S356T); assay: cell-based
T5 construct: expressed in transfected cells; host or cells: S. cerevisiae yJB013 (ste2-deleted reporter strain), p416GPD plasmid
Experimental: as §1, §2, §3, §4

[6] = target: T6, Ste2p mutant receptor Cys5R2 (Saccharomyces cerevisiae, UniProt D6VTK4, F55L/K225T/M218T/M54I/N158Y/R74K/Y26F); assay: cell-based
T6 construct: expressed in transfected cells; host or cells: S. cerevisiae yJB013 (ste2-deleted reporter strain), p416GPD plasmid
Experimental: as §1, §2, §3, §4

[7] = target: T7, Ste2p mutant receptor Cys5R7 (Saccharomyces cerevisiae, UniProt D6VTK4, D3N/K225T/L228F/M218T/M54I/N158Y); assay: cell-based
T7 construct: expressed in transfected cells; host or cells: S. cerevisiae yJB013 (ste2-deleted reporter strain), p416GPD plasmid
Experimental: as §1, §2, §3, §4

[8] = target: T8, Ste2p (wild type) (Saccharomyces cerevisiae, UniProt D6VTK4); assay: Yeast GFP/RFP reporter response of native receptor Ste2p to peptide ligand (flow cytometry); type: cell-based
T8 construct: expressed in transfected cells; host or cells: S. cerevisiae YJB015 (MPY578t5 ste2::LEU2, fus1::yeGFP, TRP1::mKate) carrying plasmid pJB036
T8 sequence (D6VTK4 1-431): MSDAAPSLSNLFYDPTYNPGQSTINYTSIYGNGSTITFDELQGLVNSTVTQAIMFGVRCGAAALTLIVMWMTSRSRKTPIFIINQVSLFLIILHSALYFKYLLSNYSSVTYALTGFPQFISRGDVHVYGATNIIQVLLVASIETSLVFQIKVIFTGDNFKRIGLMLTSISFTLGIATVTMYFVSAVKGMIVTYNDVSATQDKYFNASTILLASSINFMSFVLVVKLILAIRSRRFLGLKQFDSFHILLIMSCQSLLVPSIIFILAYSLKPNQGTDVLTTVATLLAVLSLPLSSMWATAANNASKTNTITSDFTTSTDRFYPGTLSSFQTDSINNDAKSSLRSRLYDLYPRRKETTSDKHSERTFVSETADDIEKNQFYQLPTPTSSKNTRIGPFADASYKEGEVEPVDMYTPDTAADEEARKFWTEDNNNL
Experimental: as §1
as §2, with “output. […]” for “output.”
as §4

[9] = target: T9, Ste2p mutant receptor Cys5R9 (Saccharomyces cerevisiae, UniProt D6VTK4, K225T/L228F/M218T/M54I/N158F/R74K/S121R/T167R/Y26F); assay: cell-based
T9 construct: expressed in transfected cells; host or cells: S. cerevisiae yJB013 (ste2-deleted reporter strain), p416GPD plasmid
Experimental: as §1, §2, §3, §4

[10] = target: T9, Ste2p mutant receptor Cys5R9; assay: Receptor Cys5R9 response in trypsinized pooled human urine; type: cell-based; conditions: 500 μM ligand; pooled human urine digested with trypsin (50% Tryp-LE, 37 °C overnight, boiled); n = 3
Experimental: as §1, §2
(§5) When trypsinized urine was used as the sample matrix, urine was mixed with Tryp-LE Express (Life Technologies, Grand Island, USA) to a final concentration of 50%. Mixtures were incubated at 37 °C overnight. Trypsin was inactivated by boiling the samples at 99 °C for 10 min. Samples were stored at −80 °C until assayed.

[11] = target: T6, Ste2p mutant receptor Cys5R2; assay: Receptor Cys5R2 response in trypsinized pooled human urine; type: cell-based; conditions: 500 μM ligand; pooled human urine digested with trypsin (50% Tryp-LE, 37 °C overnight, boiled); n = 3
Experimental: as §1, §2, §5

[12] = target: T3, Ste2p mutant receptor Cys4L3; assay: Receptor Cys4L3 response in trypsinized pooled human urine; type: cell-based; conditions: 500 μM ligand; pooled human urine digested with trypsin (50% Tryp-LE, 37 °C overnight, boiled); n = 3
Experimental: as §1, §2, §5

[13] = target: T7, Ste2p mutant receptor Cys5R7; assay: Receptor Cys5R7 response in trypsinized pooled human urine; type: cell-based; conditions: 500 μM ligand; pooled human urine digested with trypsin (50% Tryp-LE, 37 °C overnight, boiled); n = 3
Experimental: as §1, §2, §5

[14] = test system: Round 3 Ste2p mutant receptors; assay: Counter-sorting for specificity: round 3 Ste2p mutants evolved for Variant 56; type: cell-based, Saccharomyces cerevisiae; conditions: library sorted with 100 nM Variant 56, counter-sorted against 100 nM α-factor; Supplementary Figure 1
Experimental: Specificity can be evolved
Supplementary Figure 1- Receptors can be counter-sorted against alpha-factor to increase specificity towards the target ligand- Variant […]
Variant 56 (sequence: […]), which contains a single-amino acid substitution compared to α-factor. In round 1, error prone PCR was performed on Ste2p to create a library of mutant receptors that were subjected to sorting with 100 nM Variant 56. The best mutant isolated from this sort was re-mutagenized to create a new library. The new library was sorted in round 2 with 100 nM Variant 56, and did show an improvement in detecting Variant 56 (panel a). In round 3, the sorted library from round 2 was screened […]
(also on this page, place not known: 0 1 2 3 4 Ste2p 1 2 Fold Increase Over Inac ve Receptor (GFP/RFP) Var. 56 0 1 2 3 4 Ste2p 1 2 3* Fold Increase Over Inac ve Receptor (GFP/RFP) α-factor 0.0 0.2 0.4 0.6 0.8 1.0 Ste2p 1 2 3* Rela ve Ac va on (Var. 56/α-factor) Rounds of Mutagenesis & Screening (a) (c) (b)) […]
(1 picture or pasted object on this page, not shown here)

T3 sequence (D6VTK4 1-319 Y26F/M54I/R74K/N158F/T167R/M218T/K225T): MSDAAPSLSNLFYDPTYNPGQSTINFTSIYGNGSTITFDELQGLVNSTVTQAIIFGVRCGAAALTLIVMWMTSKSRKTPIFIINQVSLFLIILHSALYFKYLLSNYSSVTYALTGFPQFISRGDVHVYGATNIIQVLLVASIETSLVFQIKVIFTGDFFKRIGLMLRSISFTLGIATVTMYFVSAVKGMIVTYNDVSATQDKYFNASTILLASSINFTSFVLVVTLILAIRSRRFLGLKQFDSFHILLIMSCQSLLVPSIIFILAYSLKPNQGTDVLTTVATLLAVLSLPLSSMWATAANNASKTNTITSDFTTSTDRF
T2 sequence (D6VTK4 whole entry M54I/C59S): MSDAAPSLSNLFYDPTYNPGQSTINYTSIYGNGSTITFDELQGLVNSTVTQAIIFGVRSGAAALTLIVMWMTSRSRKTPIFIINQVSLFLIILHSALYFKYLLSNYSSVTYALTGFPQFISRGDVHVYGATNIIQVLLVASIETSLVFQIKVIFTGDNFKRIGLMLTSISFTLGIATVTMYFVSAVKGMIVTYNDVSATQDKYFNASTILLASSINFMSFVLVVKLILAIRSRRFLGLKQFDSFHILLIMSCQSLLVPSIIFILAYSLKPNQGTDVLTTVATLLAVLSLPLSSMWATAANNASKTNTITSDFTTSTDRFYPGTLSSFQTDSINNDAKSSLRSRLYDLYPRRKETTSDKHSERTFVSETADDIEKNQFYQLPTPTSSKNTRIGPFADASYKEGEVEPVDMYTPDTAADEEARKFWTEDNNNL
T5 sequence (D6VTK4 whole entry M54I/N158Y/M218T/K225T/S356T): as the sequence (D6VTK4 whole entry M54I/C59S) above, with S59C, N158Y, M218T, K225T, S356T counted along it
T7 sequence (D6VTK4 other isoform, or with tags, fused parts or gaps D3N/M54I/N158Y/M218T/K225T/L228F): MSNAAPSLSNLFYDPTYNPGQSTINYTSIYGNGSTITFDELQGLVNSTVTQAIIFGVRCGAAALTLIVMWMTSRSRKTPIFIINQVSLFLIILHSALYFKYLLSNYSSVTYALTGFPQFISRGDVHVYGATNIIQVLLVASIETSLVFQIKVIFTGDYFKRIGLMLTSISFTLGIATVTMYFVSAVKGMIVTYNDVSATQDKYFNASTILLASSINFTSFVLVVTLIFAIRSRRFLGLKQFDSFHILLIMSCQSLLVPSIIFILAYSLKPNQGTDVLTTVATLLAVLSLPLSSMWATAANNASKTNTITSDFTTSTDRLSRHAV
T9 sequence (D6VTK4 1-319 Y26F/M54I/R74K/S121R/N158F/T167R/M218T/K225T/L228F): as the sequence (D6VTK4 1-319 Y26F/M54I/R74K/N158F/T167R/M218T/K225T) above, with S121R, L228F counted along it
T6 sequence (D6VTK4 1-319 Y26F/M54I/F55L/R74K/N158Y/M218T/K225T): as the sequence (D6VTK4 1-319 Y26F/M54I/R74K/N158F/T167R/M218T/K225T) above, with F55L, F158Y, R167T counted along it
T1 sequence (D6VTK4 whole entry M54I): as the sequence (D6VTK4 whole entry M54I/C59S) above, with S59C counted along it
T4 sequence (D6VTK4 whole entry M54I/M218K/Q272Y): as the sequence (D6VTK4 whole entry M54I/C59S) above, with S59C, M218K, Q272Y counted along it

Question: How did the EC50 [1] turn out when `CSCC[C@H](NC(=O)[C@@H]1CCCN1C(=O)[C@H](CCC(N)=O)NC(=O)CNC(=O)[C@@H]1CCCN1C(=O)[C@H](CCCCN)NC(=O)[C@H](CC(C)C)NC(=O)[C@H](CCC(N)=O)NC(=O)[C@H](CC(C)C)NC(=O)[C@H](Cc1c[nH]c2ccccc12)NC(=O)[C@H](Cc1c[nH]cn1)NC(=O)[C@@H](N)Cc1c[nH]c2ccccc12)C(=O)N[C@@H](Cc1ccc(O)cc1)C(N)=O` [α-factor amidated, reference compound] was run?
Answer: Its EC50 is 50.1 nM.

Question: What about the EC50 [2] of the same compound?
Answer: Its EC50 is 58.9 nM.

Question: What about the EC50 [3] of the same compound?
Answer: Its EC50 is 6.76 nM.

Question: And the EC50 [4]?
Answer: Its EC50 is 70.8 nM.

Question: And the EC50 [5]?
Answer: Its EC50 is 58.9 nM.

Question: What about the EC50 [6] of the same compound?
Answer: Its EC50 is 9.12 nM.

Question: And the EC50 [7]?
Answer: The EC50 was 6.31 nM.

Question: What about the EC50 ([8]; log10 of EC50 in M ± error, 4-parameter logistic fit of GFP/RFP output, 2.5 h, 30 °C, flow cytometry, Supplementary Table 1) of the same compound?
Answer: Its EC50 is 229 nM.

Question: ALALKPGEPMY [Cys2] was tested. Which EC50 [4] did it give?
Answer: The EC50 was 316 nM.

Question: And the EC50 [5]?
Answer: The EC50 was 117 nM.

Question: What does the source list for ALDFAVGEPMK-NH2 [Cys5 amidated]?
Answer: EC50 [1]: 158000 nM; EC50 [2]: 234000 nM; EC50 [3]: 3470 nM; EC50 [4]: 81300 nM; EC50 [5]: 6170 nM; EC50 [9]: 3470 nM; EC50 [6]: 4900 nM; EC50 [7]: 2690 nM

Question: How did the “Ligand concentration at which the receptor responds (sensitivity)” value (shortened to “Ligand concentration”) ([1]; Supplementary Figure 3C legend) turn out when “ALDFAVGEYNK-NH2 [Cys7 amidated, C-terminally amidated cystatin C tryptic peptide Cys7]” was run?
Answer: The value was 1 mM.

Question: And the “Ligand concentration” value ([2]; Supplementary Figure 3C legend)?
Answer: Its value is 1 mM.

Question: And the “Ligand concentration” value ([3]; Cys4 value with a new stock of Cys4 peptide)?
Answer: The value was 100 µM.

Question: What about the “Ligand concentration” value [9] of the same compound?
Answer: The value was 500 µM.

Question: And the “Ligand concentration” value [6]?
Answer: Its value is 100 µM.

Question: What about the “Ligand concentration” value [7] of the same compound?
Answer: Its value is 50 µM.

Question: And the Improvement in sensitivity ([7]; receptor Cys5R7 versus Ste2p, same ligand)?
Answer: Its Improvement in sensitivity is 20 fold.

Question: And the “Detection of ligand in pooled human urine” value (“Detection of ligand” below) [10]?
Answer: Its value is “able to detect”.

Question: And the “Ligand concentration” value ([8]; as stated in text / figure legend)?
Answer: The value was 1 mM.

Question: And the “Detection of ligand” value [11]?
Answer: Its value is “able to detect”.

Question: And the “Detection of ligand” value [12]?
Answer: Its value is “able to detect”.

Question: And the “Detection of ligand” value [13]?
Answer: The value was “able to detect”.

Question: HALALKPGEPMY [Cys1] was tested. Which EC50 [1] did it give?
Answer: Its EC50 is 141 nM.

Question: And the EC50 [2]?
Answer: The EC50 was 129 nM.

Question: With “WHYLQLKPGQPMY [Variant 56, α-factor variant with a single-amino acid substitution]” as the compound, how does the “Activation of round 3 mutants (fold increase GFP/RFP; relative activation Var. 56/α-factor)” value [14] read?
Answer: Its value is “preferentially activated”.
